Columns and labels:
Format in all cases: in vivo
[1] = test system: spring barley, HORVS Montoya; assay: Tank-mix post-emergence crop damage, herbicide with and without safener cloquintocet-mexyl, greenhouse; parameters: key to Reduction [Difference]: damage without safener − damage with safener, % points (0–100% scale)
Protocol: Seeds of crops (spring wheat, TRZAS; spring barley, HORVS; maize, ZEAMA) were placed in sandy loam soil in peat pots, covered with soil and cultivated in a greenhouse under good growth conditions. Two to three weeks after sowing, the test plants were treated at the 1 to 3-leaf stage. The herbicide/safener active compound combinations according to the invention, formulated as wettable powders or emulsion concentrates, and, in parallel tests, the correspondingly formulated individual active compounds were sprayed onto the green parts of the plants in various dosages using an amount of water of 300 l/ha (converted).
The pots were returned under good growing conditions in a glasshouse and a visual assessment of herbicidal effects was made at intervals from 1 to 3 weeks after herbicide application (DAT=days after treatment). Assessment was on a percentage basis in comparison with untreated control plants (0%=no injury, 100%=complete kill).
(§1) Reduction [Difference]=herbicide damage without safener−herbicide damage with safener
(§2) Reduction [%]=(Reduction [Difference]*100)/herbicide damage without safener
(§3) a) Plant Species, Variety: HORVS Montoya, Safener (SAF): Cloquintocet-Mexyl

[2] = test system: spring barley, HORVS Montoya; assay: Safener seed treatment, post-emergence herbicide application, crop damage; parameters: key to Reduction [Difference]: % crop damage without safener minus % damage with safener; conditions: for Reduction [%] / HER effect + SAF / Reduction [Difference]: cloquintocet-mexyl 0, 5 g a.i./kg seed; for HER effect: without safener
From the text: (§4) For safener seed treatment trials, sufficient seed amounts of the respective crops (spring wheat (TRZAS); spring barley (HORVS)) were weighed into screw cap glass bottles with a minimum volume trice of the seeds.
(§5) As a first step, specified safeners formulated as wettable powder (WP) or wettable granules (WG) were weighed out for the required dosages (g a.i./kg seed), corresponding to the seed amounts. The safener amounts were mixed with a coloured slurry blind formulation type, pre-diluted with milk at 3.5% fat rate (25 mgs slurry formulation plus 2 ml milk per 10 grams of seed). A tube roller was used for coating. The solutions were gradually pipetted each on the rotating seeds followed by coating for min. 3 hours until all liquid had been soaked up by the seeds. Thereafter, the coated seeds were put flat on open trays for drying over night at room temperature.
(§6) Treated seeds were then placed into pots (7 cm diameter) on the surface of sandy loam, pressed down, flat covered with additional soil and finally covered with sandy soil, also pressed down, watered, and kept under good growth conditions in a greenhouse, until the plants had reached 2-leaf-stage (BBCH 12).
(§7) At that stage, post-emergence application of the specified herbicides was done on: • a) pot sets containing plants with safener-coated seeds as described above, • b) as a reference, pot sets of plants without seed treatment.
(§8) The herbicides were formulated as wettable powder (WP). Equivalent to the spray area, compound amounts were weighed out and diluted related to the water application rate (300 l/ha) to an aqueous suspension plus additive (1 l/ha MERO). Dosage related equivalents were conventionally sprayed on trays with the potted plants.
(§9) After application, the test plants were kept under good growth conditions in a greenhouse. Assessment timings were 10 and 21 days after treatment (DAT) with the herbicide, by visual scoring of the crop damage in % (comparison of untreated with treated plants, either sprayed only with herbicide or with herbicide on plants with treated seeds).
as §1, §2, §3

[3] = test system: spring wheat, TRZAS Triso; assay: as above; conditions: for HER effect + SAF [%] / Reduction [%]: cloquintocet-mexyl 0, 5 g a.i./kg seed; for HER effect [%]: without safener
From the text: as §4, §5, §6, §7, §8, §9, §1, §2
b) Plant Species, Variety: TRZAS Triso, Safener (SAF): Cloquintocet-Mexyl

[4] = 10 DAT, HER dose 48 g a.i./ha, cloquintocet-mexyl 100 g a.i./ha
[5] = 21 DAT, HER dose 2 g a.i./ha, cloquintocet-mexyl 100 g a.i./ha
[6] = 10 DAT, HER dose 32 g a.i./ha, cloquintocet-mexyl 100 g a.i./ha
[7] = 10 DAT, HER dose 1, 5 g a.i./ha

CC(C)OC(=O)C1CC(NC(=O)C2(C(C)(F)F)CC(c3cc(F)cc(F)c3)=NO2)CO1 (mixture of isomers) [Example 1.88]
Reduction [%] ([1]; 21 DAT, HER dose 1, 5 g a.i./ha, cloquintocet-mexyl 50 g a.i./ha): 50% | Reduction [%] ([2]; 21 DAT, HER dose 2 g a.i./ha): 40% | HER effect + SAF ([2]; 21 DAT, HER dose 8 g a.i./ha): 40% | Reduction [%] ([2]; 21 DAT, HER dose 8 g a.i./ha): 53% | Reduction [Difference] ([2]; 21 DAT, HER dose 8 g a.i./ha): 45 | HER effect + SAF [%] ([3]; 21 DAT, HER dose 2 g a.i./ha): 20% | Reduction [%] ([3]; 21 DAT, HER dose 2 g a.i./ha): 71% | HER effect [%] ([3]; 21 DAT, HER dose 2 g a.i./ha): 70% | HER effect + SAF [%] ([3]; 21 DAT, HER dose 8 g a.i./ha): 20% | HER effect [%] ([3]; 21 DAT, HER dose 8 g a.i./ha): 85%

CCOC(=O)C1C=CC(NC(=O)C2(C(F)(F)F)CC(c3cc(OC)cc(OC)c3)=NO2)C1 (mixture of isomers) [Example 1.12]
HER effect + SAF [1, 4]: 10% | Reduction [%] [1, 4]: 83% | Reduction [Difference] [1, 4]: 50

COC(=O)C1C=CC(NC(=O)C2(C(F)(F)F)CC(c3cccc(F)c3)=NO2)C1 (stereo not drawn) [Example 1.18]
Reduction [Difference] ([2]; 10 DAT, HER dose 32 g a.i./ha): 80

C=CC1(C(=O)NC2C=CC(C(=O)OC)C2)CC(c2cc(F)cc(F)c2)=NO1 (stereo not drawn) [Example 1.26]
HER effect + SAF [1, 5]: 10% | Reduction [%] [1, 5]: 83% | Reduction [Difference] [1, 5]: 50 | HER effect + SAF ([2]; 21 DAT, HER dose 2 g a.i./ha): 30% | Reduction [%] ([2]; 21 DAT, HER dose 2 g a.i./ha): 68% | Reduction [Difference] ([2]; 21 DAT, HER dose 2 g a.i./ha): 63 | HER effect ([2]; 21 DAT, HER dose 2 g a.i./ha): 93% | Reduction [%] ([2]; 21 DAT, HER dose 8 g a.i./ha): 47% | Reduction [Difference] ([2]; 21 DAT, HER dose 8 g a.i./ha): 45 | HER effect ([2]; 21 DAT, HER dose 8 g a.i./ha): 95% | HER effect + SAF [%] ([3]; 21 DAT, HER dose 2 g a.i./ha): 10% | Reduction [%] ([3]; 21 DAT, HER dose 2 g a.i./ha): 89% | HER effect [%] ([3]; 21 DAT, HER dose 2 g a.i./ha): 90% | HER effect + SAF [%] ([3]; 21 DAT, HER dose 8 g a.i./ha): 30% | Reduction [%] ([3]; 21 DAT, HER dose 8 g a.i./ha): 68% | HER effect [%] ([3]; 21 DAT, HER dose 8 g a.i./ha): 93%

COC(=O)C1CC(NC(=O)C2(OC)CC(c3cc(F)cc(F)c3)=NO2)CO1 (mixture of isomers) [Example 1.72]
Reduction [%] ([1]; 10 DAT, HER dose 8 g a.i./ha, cloquintocet-mexyl 50 g a.i./ha): 67% | HER effect + SAF [1, 6]: 20% | Reduction [%] [1, 6]: 60% | HER effect + SAF [%] ([3]; 21 DAT, HER dose 32 g a.i./ha): 10% | HER effect [%] ([3]; 21 DAT, HER dose 32 g a.i./ha): 60%

CC(C)OC(=O)C1CC(NC(=O)C2(C)CC(c3cccc(F)c3)=NO2)CO1 (mixture of isomers) [Example 1.78]
HER effect + SAF [%] [3, 7]: 0% | HER effect [%] [3, 7]: 20% | HER effect + SAF [%] ([3]; 10 DAT, HER dose 6 g a.i./ha): 0% | HER effect [%] ([3]; 10 DAT, HER dose 6 g a.i./ha): 70% | HER effect + SAF [%] ([3]; 10 DAT, HER dose 24 g a.i./ha): 10% | HER effect [%] ([3]; 10 DAT, HER dose 24 g a.i./ha): 70%

CSCCOC(=O)C1C=CC(NC(=O)C2(C(F)(F)F)CC(c3cc(F)cc(F)c3)=NO2)C1 (stereo not drawn) [Example 1.7]
HER effect + SAF ([2]; 21 DAT, HER dose 2 g a.i./ha): 30% | Reduction [Difference] ([2]; 21 DAT, HER dose 2 g a.i./ha): 40 | HER effect + SAF ([2]; 21 DAT, HER dose 32 g a.i./ha): 60% | Reduction [%] ([2]; 21 DAT, HER dose 32 g a.i./ha): 37% | Reduction [Difference] ([2]; 21 DAT, HER dose 32 g a.i./ha): 35 | HER effect + SAF [%] ([3]; 10 DAT, HER dose 2 g a.i./ha): 0% | HER effect [%] ([3]; 10 DAT, HER dose 2 g a.i./ha): 50% | HER effect + SAF [%] ([3]; 10 DAT, HER dose 8 g a.i./ha): 30% | Reduction [%] ([3]; 10 DAT, HER dose 8 g a.i./ha): 68% | HER effect [%] ([3]; 10 DAT, HER dose 8 g a.i./ha): 93% | HER effect + SAF [%] ([3]; 10 DAT, HER dose 32 g a.i./ha): 50% | Reduction [%] ([3]; 10 DAT, HER dose 32 g a.i./ha): 46% | HER effect [%] ([3]; 10 DAT, HER dose 32 g a.i./ha): 93%

— patent US20230276792A1, “SELECTIVE HERBICIDES BASED ON SUBSTITUTED ISOXAZOLIN CARBOXAMIDES AND CLOQUINTOCET-MEXYL” (Bayer Aktiengesellschaft, priority 2020, published 2023)
